Tested on: sea lice (L. salmonis)
Assay: In-feed treatment of sea lice infested salmon: efficacy
Type: in vivo, Lepeophtheirus salmonis on Atlantic salmon
Details: for Reduction of total sea lice: adult sea lice, lice examined ten days after end of treatment
Source text: In-feed treatment of sea lice infested salmon with 5 different neonicotinoids (a) Method: Atlantic salmon (estimated mean weight 50-100 g) were batch weighed and allocated to a single 2 m diameter challenge tank. Fish were challenged with sea lice (L. salmonis) copepodids. Within one week of the successful lice challenge, fish were randomly allocated from the 2 m challenge tank to 1 m diameter treatment tanks so that each tank contained thirty fish.
Fish were maintained until lice developed to adult stages. This was monitored by periodic examination of fish from the control tank. There were five test compounds acetamiprid (A), clothianidin (B), imidacloprid (C), nitenpyram (D) plus a control (E), each compound was tested at three doses. Experimental diets were prepared by top dressing feed pellets with the powder formulation and sealing with fish oil. Once lice had developed to adult stages, fish in all tanks received an in-feed treatment according to the relevant group for a period of seven days. Uneaten feed was collected daily to estimate the mean dose achieved in each group. Fish were examined for lice ten days following the end of the treatment period.
Following the 7day treatment period, the mean sea lice count in the control group was 7±3 adult sea lice meaning the total of adult males, adult non-ovigerous females and adult ovigerous females.

[1] = dose 1 mg/kg/day in feed for 7 days
[2] = dose 5 mg/kg/day in feed for 7 days
[3] = dose 10 mg/kg/day in feed for 7 days

Compound	Reduction of total sea lice [1]	Reduction of total sea lice [2]	Reduction of total sea lice [3]	sea lice reduction efficacy (at all three selected concentrations (10, 5, 1 mg/kg/day))	sea lice elimination (in-feed treatment, summary statement)
C/C(=N\C#N)N(C)Cc1ccc(Cl)nc1 [Acetamiprid, acetamiprid]	53%	64%	85%	–	–
CN/C(=N\[N+](=O)[O-])NCc1cnc(Cl)s1 [Clothianidin, (E)-1-(2-Chlor-1,3-thiazol-5-ylmethyl)-3-methyl-2-nitroguanidin]	90%	98%	99%	≥ 90%	full sea lice elimination
O=[N+]([O-])NC1=NCCN1Cc1ccc(Cl)nc1 [Imidacloprid, imidacloprid]	91%	94%	81%	–	–
CCN(Cc1ccc(Cl)nc1)/C(=C/[N+](=O)[O-])NC [Nitenpyram, nitenpyram]	48%	89%	89%	–	–
